Tested on: mouse liver microsomes, LC-MS/MS, half-life
Assay: Inhibitors of Bloom's syndrome helicase: Metabolic Stability Profiling
Details: at 1 µM; stronger effect = higher value
Excerpt: Survival of cells and the faithful propagation of the genome depend on elaborate mechanisms of detecting and repairing DNA damage. Treatment of advanced cancer relies on radiation therapy or chemotherapy, which kill cancer cells by causing extensive DNA damage. It is often found, that cancer cells develop resistance to therapy through enhanced activity of DNA repair functions; this has led to an increased interest in developing drugs that interfere with DNA repair, which could sensitize cancer cells to conventional therapy. Bloom syndrome helicase (BLM), is important in resolving abnormal DNA structures formed during replication or homologous recombination. Shutting down the expression of BLM leads to chromosomal instability and higher radiation sensitivity in cultured cells. After the completion of a qHTS campaign, secondary assays, and rounds of medicinal chemistry, a compound was identified to be further characterized through in vitro ADME assays. Mouse liver microsomes are created through broken up endoplasmic reticulum from mouse liver. These liver microsomes contain many drug metabolizing enzymes, such as Cytochome P-450s and flavin-containing monooxygenases. Because metabolism is major way of drug clearance, this is an important result. […]
1uM of compound in incubated in mouse liver microsome; the reference compound is ketanserin. […] Samples are analyzed with LC-MS/MS.

O=C(Nc1ccc(F)c(C(F)(F)F)c1)Nc1nnc(-c2ccncc2)s1
half-life: 120 min

Reference: PubChem BioAssay AID504739 (National Center for Advancing Translational Sciences (NCATS), 2011)
